Assay results as given in paper PMC8279415, “Targeting Acute Myelogenous Leukemia Using Potent Human Dihydroorotate Dehydrogenase Inhibitors Based on the 2-Hydroxypyrazolo[1,5-a]pyridine Scaffold: SAR of the Biphenyl Moiety” (Journal of Medicinal Chemistry, 2021).
In brackets after ≈: the same amount, converted by molar mass. Entries after “also recorded” stand apart in the source; their conditions may differ. Like-named read-outs stand apart in the source and are kept apart here.

Experiments:
[1] = cited from earlier work
[2] = cited from earlier work; remark: listed apart in the source
[3] = set-up: method as in doi:10.1158/1538-7445.AM2019-2; settings: cited from earlier work
THP1 cells [4] = assay: Annexin V apoptosis assay in THP1; settings: Homo sapiens
Jurkat cells = assay: CFSE-based cytotoxic activity assay; settings: concentration inducing cytotoxicity ≥30%, 3 days
THP1 cells [5] = assay: Differentiation assay (CD14 expression) in THP1; settings: Homo sapiens
[6] = Protein binding in vitro (ultrafiltration); type: in vitro ADME; settings: male, human serum, 37 °C, read-out: protein binding (% bond) (converted)
Description: This was achieved via ultrafiltration using commercially available membrane systems (Centrifree ultrafiltration devices with ultracel YM-T membrane, Merck). […] 1 mL of the solution obtained in the sample reservoir of the ultrafiltration device was gently shaken in an orbital shaker at 37 °C for 1 h. […] The concentrations of the compounds in the ultrafiltrate and filtrate were determined using reverse-phase UHPLC, and the chromatographic conditions were those described above with different injection volumes: 20 μL for ultrafiltrate samples and 2 μL for filtrate samples.

recombinant hDHODH = target: T1, recombinant hDHODH (Homo sapiens, UniProt Q02127); assay: hDHODH inhibition assay (DCIP reduction); type: biochemical
T1 construct: made in house; host or cells: E. coli BL21DE3 PyrD
T1 sequence (Q02127 whole entry): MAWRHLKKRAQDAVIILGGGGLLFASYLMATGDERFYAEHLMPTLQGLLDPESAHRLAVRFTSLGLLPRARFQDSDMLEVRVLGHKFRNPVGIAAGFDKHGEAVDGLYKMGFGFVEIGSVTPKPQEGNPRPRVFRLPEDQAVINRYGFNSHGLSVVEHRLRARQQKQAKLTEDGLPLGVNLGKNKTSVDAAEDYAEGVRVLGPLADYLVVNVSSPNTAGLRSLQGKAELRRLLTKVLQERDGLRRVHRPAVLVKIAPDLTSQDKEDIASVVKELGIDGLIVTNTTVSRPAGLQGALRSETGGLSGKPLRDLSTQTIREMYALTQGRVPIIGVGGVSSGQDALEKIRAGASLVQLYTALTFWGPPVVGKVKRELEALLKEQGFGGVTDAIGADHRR
Description: BL21DE3 PyrD E. coli cells were transformed using the plasmid construct pFN2A–hDHODH (kindly given by Department of Drug Science and Technology, University of Turin, Turin, Italy). The vector produces hDHODH as an N-terminal GST-fusion protein. Cells were grown at 37 °C in LB medium supplemented with 0.1 mM flavin mononucleotide (Cayman Chemical). […] Triton X-100 was added to the lysate, to a final concentration of 1%, before centrifugation at 14 000g for 40 min at 4 °C. The clarified supernatant was incubated with DNase I for 30 min at room temperature, supplemented with 2 mM dithiothreitol (DTT), and filtered through a 0.45 μm syringe filter as previously described by Sainas et al.[18] The GST-fused enzyme was purified from the bacterial lysate using affinity chromatography on immobilized glutathione-Sepharose columns (GE- […]). The GST tag was not cleaved for further analysis. All the reagents used in the protein expression and purification were supplied by Merck/Sigma-Aldrich if not otherwise specified.
The enzymatic inhibition assay was optimized for being performed on a 96-well plate and to achieve higher throughput. For each well of the plate a total volume of 200 μL was used: 5 μL of purified GST-hDHODH; 60 μL of 2,6-dichloroindophenol (DCIP) 50 μM; 20 μL of coenzyme Q10 enzyme 100 μM; 20 μL of dihydroorotate (DHO) 500 μM; Tris-HCl, pH 8, up to a final volume of 200 μL. Inhibitory activity was assessed by monitoring the reduction of DCIP, which is associated with the oxidation of dihydroorotate as catalyzed by the DHODH enzyme. The enzyme was preincubated for 5 min at 37 °C in Tris-HCl, pH 8, with coenzyme Q10, with DCIP (50 μM), and with the compounds to be tested used at different concentrations (final DMSO concentration 0.1% v/v). The reaction was initiated by the addition of DHO (500 μM), and the absorbance kinetic reduction was monitored at λ = 650 nm using a multiplate reader (Tecan, M1000Pro). In order to assess the minimum and maximum absorbance values of the enzymatic reaction, a Min control value was obtained by measuring the absorbance without DHO. Similarly, a Max value was obtained by measuring the absorbance with DHO but no inhibitor. A blank reduction calculation was also performed by measuring the absorbance values using 180 μL of Tris-HCl and 20 μL of coenzyme Q10. The instrument was set to read the absorbance values every 10 s for a total read time of 10 min at 37 °C. […] Values are the mean ± SE of three independent experiments.

THP1 cells [7] = assay: Fixed-concentration screening of differentiation (CD14) and apoptosis (annexin V) in THP1, with or without uridine; type: cell-based, human
Description: DMSO (dimethyl sulfoxide) acts as the negative control group as it was used to solubilize hDHODH inhibitors. ∗, ∗∗, ∗∗∗ represent the statistical significance for apoptosis (respectively p < 0.05, < 0.01, and <0.001). #, ##, and ### represent the statistical significance for differentiation (respectively p < 0.05, <0.01, and <0.001). The statistical significance is calculated by comparing the compounds to DMSO.
The statistical significance is calculated by comparing the compounds to DMSO.

[8] = LogD7.4, shake-flask n-octanol/PBS; settings: n-octanol/PBS, pH 7.4
Description: The partition coefficients between n-octanol and PBS at pH 7.4 (LogD^7.4) were obtained using the shake-flask technique at room temperature. In the shake-flask experiments, 50 mM phosphate buffered saline, pH 7.4, was used as the aqueous phase. The organic (n-octanol) and aqueous phases were mutually saturated by shaking for 4 h. The compounds were solubilized in the buffered aqueous phase at the highest concentration compatible with solubility, and appropriate amounts of n-octanol were added. The two phases were shaken for about 20 min, by which time the partitioning equilibrium of solutes had been reached, and then centrifuged (10 000 rpm, 10 min). The concentration of the solutes was measured in the aqueous phase using a UV spectrophotometer (Varian Cary 50BIO); absorbance values (recorded for each compound at the wavelength of maximum absorption) were interpolated in calibration curves obtained using standard solutions of the compounds (r^2 > 0.99). Each log D value is an average of at least six measurements.

[9] = Solubility assay at pH 7.4 in PBS; type: physicochemical; settings: pH 7.4, 25 °C, 24 h, LOD 6 μM; for solubility at 24 h: phosphate buffered saline
Description: These suspensions were filtered through a PTFE 0.45 μm filter (VWR), and the solutions were chromatographically analyzed using a PerkinElmer ultrahigh performance liquid chromatography (UHPLC) instrument, equipped with a reverse-phase (RP) C18 Phenomenex column (2.1 mm × 100 mm, 1.7 μm particle size). […] The flow rate was 0.5 mL/min. Standard injection volumes were either 2 or 4 μL for poorly soluble compounds. The detection system was a PerkinElmer diode array detector. The wavelengths that were monitored for each compound were defined according to the compound’s own absorption spectrum. Solubility, expressed as μM concentration of the saturated solution, was calculated via interpolation with external calibration curves that were obtained with solutions of each compound in acetonitrile.

U937 cells [10] = assay: Annexin V apoptosis assay in U937; settings: Homo sapiens, U-937, 72 h, read-out: apoptosis EC50 U937 (CL 95%)
U937 cells [11] = assay: Differentiation assay (CD11b expression) in U937; settings: Homo sapiens, U-937, 72 h, read-out: differentiation EC50 U937 (CL 95%)
[12] = In vitro metabolic profile in rat-liver microsomes; type: in vitro ADME
Description: SyGMa (systematic generation of potential metabolites) software, a tool that lists predicted metabolites with associated empirical probability scores, was used to identify putative metabolites, which were then investigated by analyzing samples with liquid chromatography coupled to high-resolution mass spectrometry (HPLC–HRMS). […] The full-scan MS data acquired for all of the samples were analyzed to find the m/z values of the predicted molecular structures. In order to exclude interfering signals, the results obtained were compared to blank samples and common background peaks were not considered.
Rat-liver microsomes (Sprague-Dawley, male, Sigma-Aldrich; 20 mg/mL protein concentration) were incubated with the candidate compound solution (5 μM final concentration, with 1% DMSO) and Tris buffer (0.1 M, pH = 7.4). The regenerating system, which slowly generated coenzyme units over the incubation time, leading to a better reproduction of in vivo behavior, was composed of MgCl2 (3.3 mM), NADP^+ (1.3 mM), Glu6P (3.5 mM), and Glu6P dehydrogenase (0.5 U/mL).
The incubation time started with the addition of the microsomes suspension (0.5 mg/mL).
Metabolic reactions were stopped by adding 100 μL of cooled acetonitrile to the 100 μL sample of the incubation mixture. Samples were centrifuged to provoke protein precipitation, and the supernatants were immediately stocked at −80 °C, until analysis, to prevent the potential degradation of unstable products.
The products of in vitro metabolism were identified using a high-resolution mass spectrometer (Q-Exactive Orbitrap, Thermo Scientific) coupled to an HPLC instrument (1200 system Agilent). All analytes were separated on an Ascentis C18 column (150 mm × 2.1 mm, 5 μm particle size) maintained at 35 °C. The elution mixture was composed of solvent A (0.1% formic acid in water for positive ionization mode and 0.05% acetic acid for negative ionization mode) and solvent B (acetonitrile). […] MS2-DIA scans were acquired at R = 17 500 and with variable collision energies ranging from 30 to 45, depending on the m/z of the parent ion.

[13] = THP-1, 72 h, read-out: apoptosis EC50 THP1 (CL 95%)
[14] = THP-1, 72 h, read-out: differentiation EC50 THP1 (CL 95%)
[15] = mean ± SE of three independent experiments, read-out: hDHODH, IC50 ± SE
[16] = supplementary CSV, values differ from Table 2, read-out: hDHODH IC50 ± SE (supplement CSV)
[17] = THP-1, read-out: Apoptosis EC50 (C.L.95%) (supplement CSV)
[18] = THP-1, read-out: Differentiation EC50 (C.L.95%) (supplement CSV)

SMILES | EC50 (THP1 cells [4]; [13]) [nM] | cytoxicity Jurkat (effect ≥30% ± SD) (Jurkat cells) [µM] | EC50 (THP1 cells [5]; [14]) [nM] | fraction unbound at 1 h, 50 µM [6] | IC50 (recombinant hDHODH; [15]) [nM] | IC50 (recombinant hDHODH; [16]) [nM] | logD [8] | solubility at 24 h [9] [µM] | activity in cells (differentiation and apoptosis) (THP1 cells [7]; THP1, 0.1 μM) | EC50 (THP1 cells [4]; [17]) [nM] | EC50 (U937 cells [10]) [nM] | EC50 (THP1 cells [5]; [18]) [nM] | EC50 (U937 cells [11]) [nM] | further results
COc1cccc(-c2cc(F)c(Nc3ncccc3C(=O)O)c(F)c2)c1 [ASLAN003] |  |  |  |  |  |  |  |  |  |  |  |  |  | protein binding (% bond) [1]: >99[25] %
CCn1c(CO)nn(-c2cc(O[C@@H](C)C(F)(F)F)c(C(=O)Nc3c(F)cccc3Cl)cc2F)c1=O [BAY-2402234, reference compound] | 3.4 | 36 ± 4 | 2.4 |  |  |  |  |  |  |  |  |  |  | LogD^7.4 [2]: 2.7[27]; solubility in PBS [3]: <1[31] μM
Cc1c(-c2ccc(-c3ccccc3F)cc2)nc2ccc(F)cc2c1C(=O)O [Brequinar, reference compound] |  |  |  | 0.0117 |  |  |  |  |  |  |  |  |  | 
O=C(Nc1c(F)c(F)c(-c2cccnc2)c(F)c1F)c1c(O)nn2ccccc12 [Compound 8, 2-Hydroxy-N-(2,3,5,6-tetrafluoro-4-(pyridin-3-yl)phenyl)pyrazolo[1,5-a]pyridine-3-carboxamide] |  |  |  | 0.0042 | 6.23 ± 0.63 | 7.19 ± 0.19 | 0.98 ± 0.03 |  |  |  |  |  |  | activity in cells (differentiation and apoptosis) (THP1 cells [7]; THP1, 1 μM): basically inactive
O=C(Nc1c(F)c(F)c(-c2cccc(F)c2)c(F)c1F)c1c(O)nn2ccccc12 [Compound 11, 2-Hydroxy-N-(2,3,3′,5,6-pentafluoro-[1,1′-biphenyl]-4-yl)pyrazolo[1,5-a]pyridine-3-carboxamide] | 250 | 39 ± 3 | 67.6 | 0.0004 | 2.03 ± 0.44 | 2.37 ± 0.35 | 2.09 ± 0.04 | < 6 | highly active | 222 | 68.2 | 58.9 | 40.7 | solubility in PBS [9]: <LOD
O=C(Nc1c(F)c(F)c(-c2cccc(C(F)(F)F)c2)c(F)c1F)c1c(O)nn2ccccc12 [Compound 13, 2-Hydroxy-N-(2,3,5,6-tetrafluoro-3′-(trifluoromethyl)-[1,1′-biphenyl]-4-yl)pyrazolo[1,5-a]pyridine-3-carboxamide] | 51.1 | >100 | 38.3 | 0.0006 | 6.34 ± 0.63 | 3.01 ± 0.37 | 2.69 ± 0.03 | < 6 | highly active | 42.9 | 60 | 32 | 34.2 | solubility in PBS [9]: <LOD
O=C(Nc1c(F)c(F)c(-c2cccc(OC(F)(F)F)c2)c(F)c1F)c1c(O)nn2ccccc12 [Compound 15, 2-Hydroxy-N-(2,3,5,6-tetrafluoro-3′-(trifluoromethoxy)-[1,1′-biphenyl]-4-yl)pyrazolo[1,5-a]pyridine-3-carboxamide] | 39.6 | >100 | 31.5 |  |  | 2.62 ± 0.79 | 3.27 ± 0.19 | 8.1 (≈ 3.93 µg/mL) | highly active | 32.6 | 35.3 | 28 | 8.6 | metabolites identified in sample C ([12]; active rat-liver microsomes and regenerating system, HPLC-HRMS): did not identify appreciable concentration of metabolites; parent compound recovered ([12]; rat-liver microsomes with regenerating system, 2 h incubation): 100%; metabolic stability ([12]; rat-liver microsomes, 2 h): metabolically stable; also recorded: good metabolic stability
COc1cccc(-c2c(F)c(F)c(NC(=O)c3c(O)nn4ccccc34)c(F)c2F)c1 [Compound 16, 2-Hydroxy-N-(2,3,5,6-tetrafluoro-3′-methoxy-[1,1′-biphenyl]-4-yl)pyrazolo[1,5-a]pyridine-3-carboxamide] | 37.9 | 68 ± 7 | 31.2 | 0.0005 |  | 1.47 ± 0.33 |  | 74.3 (≈ 32 µg/mL) | highly active | 29.6 | 42.8 | 26.9 | 31.1 | 
